For assay [1], the system named is audiogenic generalized convulsive seizures in DBA/2J mice. In words: Audiogenic seizure-sensitive mouse model of generalized convulsive seizures. It is filed as in vivo. The following applies: 10 mg/kg po, challenge 1h. On the procedure:
(§1) Compounds were formulated in a 10% polyethylene glycol 400 (PEG 400) / 90% aqueous solution of 0.5 % methylcellulose (MC 0.5%). Firstly drugs are dissolved in PEG 400 and then suspended in MC 0.5 % for oral gavage at Xmg/5 mL/kg (X see table).
• 1. Procedure: Following two days of acclimatisation, auditory seizures are induced in male juvenile DBA/2J mice (22-24 days old; Janvier Labs, France). Each mouse is placed individually in the exposure chamber, an hemispheric acrylic glass dome (diameter: 50 cm) within a sound-attenuated box. The soundattenuated box is equipped with two house lights and a camera system (Fire-I from Unibrain) in order to observe and record the behavioral seizure response. After 60 seconds of habituation, the stimulus, a mixed frequency tone of 15-20 kHz at 110 dB (SASLab Lite, Avisoft Bioacoustics), is played from a speaker that is placed on the top center of the dome. […] Seizures are classified as following: stage 0, normal behavior; stage 1, wild running; stage 2, generalized clonus; stage 3, tonic extension of the hind limbs. • 2. Compounds testing: Acute compound effects on audiogenic generalized convulsive seizures are evaluated in independent groups of 8-10 mice randomly assigned. Following oral administration of compound or vehicle, the maximum seizure stage during sound exposure is assessed. Compounds are given 1 hour before exposure to the stimulus. Each mouse is exposed to the auditory stimulus only once and euthanized afterwards by CO2 inhalation.

For assay [2], the system named is fully kindled Wistar rats. Put plainly: Amygdala-kindling rat model. It is filed as in vivo. The following applies: challenge 1 h. On the procedure:
as §1
• 1. Procedure: Adult male Wistar rats (Harlan Laboratories, Netherlands, or Charles Rivers, Germany; body weight 300-350 g) were stereotaxically implanted with twisted bipolar plastic-coated stainless steel electrode (MS333-2-BIU 10 mm, Plastics One) into the right basolateral amygdala under isoflurane anesthesia. To place the electrode, trepanations were made in the skull and the electrode was lowered into the right basolateral amygdala (from bregma: anteriorposterior (AP): -2.5 mm, medio-lateral (ML): -3.5 mm, dorso-ventral (DV): -8.6 mm; α=10^0) and secured to the skull with screws and dental acrylate. After one week of recovery, they were handled daily and habituated over one week to the kindling setup. Kindling procedure: For a kindling session each rat was placed individually into a smooth acrylic plastic, round-bottomed bowl (0 36 cm, height 36 cm, BASi movement-responsive caging system) and its intracranial implanted electrode was connected to the stimulator (STG4008, Multichannel Systems GmbH) and the recording devices (PowerLab 8/35, ADInstruments Ltd) via a cable (335-340/3 (C), Plastics One). For the kindling procedure, each rat was exposed once daily to an electrical stimulation and the behavioral symptoms of the evoked seizure were observed and classified according to the modified Racine scale (stage 0, arrest, wet dog shakes, normal behaviour; stage 1, facial twitches: nose, lips, eyes; stage 2, chewing, head nodding; stage 3, forelimb clonus; stage 4, rearing, falling on forelimbs; stage 5, rearing, falling on side or back, rolling). […] The duration of electroencephalographic seizures (afterdischarge, AD) was recorded using LabChart7 Pro software (ADInstruments Ltd). Simultaneously, videos were recorded to evaluate seizure stage (SS). • 2. Compound testing: Acute drug effects were evaluated in groups of 6-8 fully kindled rats in a randomized cross-over design with 48h between drug and vehicle applications. Following oral administration of drug or vehicle, drug testing included determination of the afterdischarge threshold (the minimal stimulation intensity necessary to evoke an afterdischarge (electroencephalographically measured neuronal hyper-synchronous activity with an amplitude 2-times higher than baseline amplitude and a frequency of […]) of at least 3 sec duration) and monitoring electroencephalographic and behavioral correlates of the evoked seizure at ADT (afterdischarge threshold), including AD duration and SS, by a experimenter blind to treatment assignment.

As for `O=C(NCc1cccc(C(F)(F)F)c1)NC1CC(C(F)F)C1` (single isomer, unassigned) [Example 53, 1-(3-(Difluoromethyl)Cyclobutyl)-3-(3-(Trifluoromethyl)Benzyl)Urea], the “Seizure stage [% vs. vehicle]” value in assay [1] was -78 % vs. vehicle. Moreover, in assay [2] (30 mg/kg po), the “AD duration [% vs veh]” value was -93 % vs veh and the “Seizure stage [% vs veh]” value is -81 % vs veh.

Turning to `O=C(NCc1cccc(C(F)(F)F)c1)NC12CC(C(F)F)(C1)C2` [Example 47, 1-(3-Difluoromethyl-Bicyclo[1.1.1]Pent-1-yl)-3-(3-Trifluoromethyl-Benzyl)-Urea], the “Seizure stage [% vs. vehicle]” value in assay [1] is -92 % vs. vehicle. In assay [2] (10 mg/kg po), the “AD duration [% vs veh]” value is on record as -85 % vs veh and the “Seizure stage [% vs veh]” value is reported as -70 % vs veh.

The values above are taken from patent publication US20230303486A1, “CYCLOBUTYL-UREA DERIVATIVES” (Idorsia Pharmaceuticals Ltd, priority 2020, published 2023).
